A short description of series [1]: Water solubility of the peptides. The series is classed as physicochemical. As to conditions: native peptide; solubilized in ethanol before dilution in water. Here is the method:
Peptides were produced by manual and semiautomatic solid-phase peptide synthesis (SPPS). To reduce the impact on the environment of the synthesis, a limited excess of reagents was employed in the coupling steps (1.5–2.5 equivalents of coupling reagents instead of the standard 4 equivalents-1 equivalent corresponds to the loading of the resin). Moreover, all steps were performed in the ecofriendly solvent mixture of dimethylsulfoxide/ethyl acetate 1:9 instead of the hazardous solvent N,N-dimethylformamide (DMF). We exploited ethyl cyano(hydroxyimino) acetate (Oxyma pure) and diisopropylcarbodiimide (DIC), classified by the ACS Green Chemistry Institute® Pharmaceutical Roundtable as two of the greenest coupling reagents, instead of the commonly employed O-benzotriazol-1-yl-1,1,3,3 tetramethyluronium hexafluorophosphate (HBTU)/1-hydroxy-1,2,3-benzotriazole (HOBt) mixture or HATU [2-(1H-7-aza-1,2,3-benzotriazol-1-yl)-1,1,3,3-tetramethyl uronium hexafluorophosphate]. The strategy reduced the environmental impact and synthetic costs by more than 70% compared to our previous methods based on standard procedure. By adopting a manual/semiautomatic synthetic approach, the amount of solvents and reagents were reduced relative to those used in automated synthesis. The steric hindrance of Aib makes it poorly reactive, to the point that standard procedures employ repeated couplings. […]

A further series has as its system B. cinerea. Nature of the series: Resazurin vital dye growth assay in microtiter wells. The series is classed as cell-based, Botrytis cinerea. As to conditions: peptide 15 µM, monitored every 12 h for seven days. Background: The colour change of resazurin is a common sign of viable cells or microbes.
In another series the test system is B. sorokiniana. The series is classed as cell-based, Bipolaris sorokiniana.

One substance from paper PMC7589190, “Targeted Amino Acid Substitutions in a Trichoderma Peptaibol Confer Activity against Fungal Plant Pathogens and Protect Host Tissues from Botrytis cinerea Infection” (International Journal of Molecular Sciences, 2020) can be followed below.

“Also recorded” adds a separate entry of the source.

For the substance “nOct-Aib-Gly^2-Leu-Aib-Gly^5-Gly-Leu-Aib^8-Gly-Ile-Lol [trichogin, trichogin GA IV, reference compound]”, the “water solubility (in words)” value in series [1] was “poor water solubility”. Also, the “Growth Delay” value with B. cinerea (PDB pH 6.9, 5 × 10^5 spores mL^−1, resazurin, 25 °C dark, vs untreated control, repeated three times) is given as 0 h. Also, the “fungal growth / activity against B. cinerea (in words)” value with B. cinerea (resazurin dye) is “fungal growth was observed after 12 h; also recorded: completely inactive”. Further, the “activity against B. sorokiniana (in words)” value with B. sorokiniana is “inactive”. In addition, the “activity against F. graminearum (in words)” value in the series with F. graminearum was “inactive”. Further, in the series on P. expansum, the “activity against P. expansum (in words)” value was “inactive”.
